Data published in PubChem BioAssay (NCI).
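How tested: cells in 96-well plates exposed to compound for 48 hours at five concentrations. At the GI50, growth is halved. Definition used: TGI = concentration required for complete inhibition of growth.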

Tests used:
Assay in all cases: NCI-60 cell line screen, 48 h
[1] = test system: ACHN renal
[2] = test system: UACC-257 melanoma
[3] = test system: CAKI-1 renal
[4] = test system: OVCAR-8 ovarian
[5] = test system: NCI-H23 lung
[6] = test system: MOLT-4 leukemia
[7] = test system: EKVX NSCLC
[8] = test system: HS 578T breast
[9] = test system: K-562 leukemia
[10] = test system: BT-549 breast

CN(C)c1ccc(/C=C\c2cccc[n+]2C)cc1
GI50 [1]: 43 µM
TGI [1]: > 100 µM
GI50 [2]: 7.81 µM
TGI [2]: > 100 µM
GI50 [3]: 3.8 µM
TGI [3]: > 100 µM
GI50 [4]: 4.13 µM
TGI [4]: > 100 µM
GI50 [5]: 4.69 µM
TGI [5]: > 100 µM
GI50 [6]: 38.4 µM
TGI [6]: > 100 µM
GI50 [7]: 0.489 µM
TGI [7]: > 100 µM
GI50 [8]: 16.2 µM
TGI [8]: > 100 µM
GI50 [9]: 2.22 µM
TGI [9]: > 100 µM
GI50 [10]: 2.76 µM
TGI [10]: 79.8 µM

O=C(O)C/C=C/CC(=O)O
TGI [1]: > 100 µM
TGI [2]: > 100 µM
TGI [3]: > 100 µM
TGI [4]: > 100 µM
TGI [5]: > 100 µM
TGI [6]: > 100 µM
TGI [7]: > 100 µM
TGI [8]: > 100 µM
TGI [9]: > 100 µM
TGI [10]: > 100 µM

Cc1cc(N/N=C/c2nc(-c3ccc(Br)cc3)oc2C)c2cc(Cl)ccc2n1
GI50 [1]: > 100 µM
TGI [1]: > 100 µM
GI50 [2]: > 100 µM
TGI [2]: > 100 µM
GI50 [3]: > 100 µM
TGI [3]: > 100 µM
GI50 [4]: > 100 µM
TGI [4]: > 100 µM
GI50 [5]: > 100 µM
TGI [5]: > 100 µM
GI50 [6]: > 100 µM
TGI [6]: > 100 µM
GI50 [7]: > 100 µM
TGI [7]: > 100 µM
GI50 [8]: > 100 µM
TGI [8]: > 100 µM
GI50 [9]: > 100 µM
TGI [9]: > 100 µM
GI50 [10]: > 100 µM
TGI [10]: > 100 µM

O=c1[nH]c2ccccc2nc1-c1c[nH]c2ccccc12
GI50 [1]: > 100 µM
TGI [1]: > 100 µM
GI50 [2]: > 100 µM
TGI [2]: > 100 µM
GI50 [3]: 2.49 µM
TGI [3]: > 100 µM
GI50 [4]: > 100 µM
TGI [4]: > 100 µM
GI50 [5]: > 100 µM
TGI [5]: > 100 µM
GI50 [6]: > 100 µM
TGI [6]: > 100 µM
GI50 [7]: 18.8 µM
TGI [7]: > 100 µM
GI50 [8]: 6.83 µM
TGI [8]: > 100 µM
GI50 [9]: > 100 µM
TGI [9]: > 100 µM
GI50 [10]: > 100 µM
TGI [10]: > 100 µM

CC(C)CC(CC1=CCC2CC1C2(C)C)C1=C(O)C(C)(C)C(=O)C(C)(C)C1=O (centres undefined)
GI50 [1]: 0.352 µM
TGI [1]: 3.58 µM
GI50 [2]: 0.256 µM
TGI [2]: 0.792 µM
GI50 [3]: 0.332 µM
TGI [3]: 2.29 µM
GI50 [4]: 0.379 µM
TGI [4]: > 100 µM
GI50 [5]: 0.321 µM
TGI [5]: 1.57 µM
GI50 [6]: 0.343 µM
TGI [6]: 1.6 µM
GI50 [7]: 0.33 µM
TGI [7]: > 100 µM
GI50 [8]: 0.366 µM
TGI [8]: 3.81 µM
GI50 [9]: 0.334 µM
TGI [9]: > 100 µM
GI50 [10]: 0.413 µM
TGI [10]: 4.37 µM

N#C/C(=C\c1c(-c2ccccc2)[nH]c2ccccc12)S(=O)(=O)c1ccccc1
GI50 [1]: 6.65 µM
TGI [1]: 75 µM
GI50 [2]: 17.9 µM
TGI [2]: 56.2 µM
GI50 [3]: 5.48 µM
TGI [3]: > 63 µM
GI50 [4]: 5.82 µM
TGI [4]: > 78 µM
GI50 [5]: 4.26 µM
TGI [5]: > 58.5 µM
GI50 [6]: 1.68 µM
TGI [6]: > 100 µM
GI50 [7]: 5.49 µM
TGI [7]: > 64.8 µM
GI50 [8]: 8.76 µM
TGI [8]: > 26.8 µM
GI50 [9]: 0.346 µM
GI50 [10]: 10 µM
TGI [10]: > 56.9 µM

COC(=O)Cn1c2c(c3c(O)cccc31)C(=O)c1ccccc1-2
GI50 [1]: > 100 µM
TGI [1]: > 100 µM
GI50 [2]: > 100 µM
TGI [2]: > 100 µM
GI50 [3]: > 100 µM
TGI [3]: > 100 µM
GI50 [4]: > 100 µM
TGI [4]: > 100 µM
GI50 [5]: > 100 µM
TGI [5]: > 100 µM
GI50 [6]: > 100 µM
TGI [6]: > 100 µM
GI50 [7]: > 100 µM
TGI [7]: > 100 µM
GI50 [8]: > 100 µM
TGI [8]: > 100 µM
GI50 [9]: > 100 µM
TGI [9]: > 100 µM
GI50 [10]: > 100 µM
TGI [10]: > 100 µM
